Data as given in patent publication US7202218B2, “Oligopeptide antagonist of interleukin-6” (National Taiwan University, priority 2005, dated 2007).
Where no end group is shown, it is not given here.

What was measured:
[1] = system: IL-6-induced angiogenesis; experiment: Matrigel plug assay, hemoglobin level; format: in vivo; conditions: BALB/c nude mice; plugs recovered after 7 days; FIG. 8
Method: On the other hand, Matrigel plug assay was performed to analyze the inhibiting effect on IL-6-induced angiogenesis of peptide S7. Matrigel (500 μl) containing CM from cells treated in various ways was […] into 4- to 8-week-old female BALB/c nude mice at sites lateral to the abdominal midline. Aforementioned CM was obtained either from vector control cells or from IL-6 overexpressed C33A cells in the presence or absence of peptide S7. The Matrigel plugs were recovered after 7 days of implementation, dissolved in PBS, and incubated at 4° C. overnight. Hemoglobin levels were determined using Drabkin's solution (Sigma Chemical) according to the manufacturer's instructions to get the result shown in FIG. 8.

[2] = molecular target: T1, IL-6Rα in different cell lines (Homo sapiens, UniProt P08887); experiment: In vitro competition assay of synthetic peptides on cell lines; format: cell-based; conditions: synthetic peptide; FIG. 3
T1 construct: all membrane-type IL-6Rα-expressing cell lines; endogenous in cells
T1 sequence (P08887 20-468): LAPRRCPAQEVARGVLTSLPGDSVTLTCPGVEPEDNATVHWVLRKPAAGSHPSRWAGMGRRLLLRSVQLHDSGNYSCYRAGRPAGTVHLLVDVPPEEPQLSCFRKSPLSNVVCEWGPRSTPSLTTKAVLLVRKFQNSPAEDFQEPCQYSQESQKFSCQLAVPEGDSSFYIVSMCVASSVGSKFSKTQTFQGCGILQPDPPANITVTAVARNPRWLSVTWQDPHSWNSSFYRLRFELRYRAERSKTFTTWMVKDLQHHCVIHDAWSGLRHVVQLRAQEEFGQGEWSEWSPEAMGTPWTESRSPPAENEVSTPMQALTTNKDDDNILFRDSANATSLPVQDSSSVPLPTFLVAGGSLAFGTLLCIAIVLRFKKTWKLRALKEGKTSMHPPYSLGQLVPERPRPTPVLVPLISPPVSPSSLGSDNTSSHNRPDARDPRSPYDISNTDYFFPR
Method: The binding affinities to IL-6Rα of the 7 independent peptide sequences of the IR-6Rα-binding clones selected from phage display peptide library (Table 1) were confirmed. The phage clones with the inserted DNA encoding these 7 different peptide sequences (phage S1˜S7) were added into IL-6Rα coated 96-well cell culture plates (10^12 pfu/ml) and incubated with IL-6Rα for 1 hour. IL-6 protein (50 ng/ml, 100 μl) was added to the wells and incubated at room temperature for 2 hours. The plates were thoroughly washed with 0.1% BSA (bovine serum albumin)/PBS (phosphate-buffered saline) buffer (pH 8.5). Finally, biotin-conjugated anti-IL-6 monoclonal antibody, horseradish peroxidase (HRP)-conjugated streptavidin and tetramethyl benzidine (TMB) substrate solution were used to perform the known phage Enzyme-Linked Immunosorbent Assay (ELISA) to determine the L-6 protein bound to the cell plates.
Oligopeptides encoded by the inserted DNA in phages S7 and S1 (labeled as ‘peptide S7’ (SEQ ID NO: 7) or ‘peptide S1’ (SEQ ID NO: 1) hereafter) were produced by the known peptide synthesis method. The binding assay described in Example 1 was carried out, but using peptide S7 or peptide S1 (negative control) instead of phage clones, and using cell lines instead of IL-6Rα to perform competition assay and get the result shown in FIG. 3.

Mcl-1 protein = experiment: Western blot of IL-6-induced Mcl-1 protein in C33A cells; format: cell-based, human; conditions: FIG. 4B
Method: (§1) 80% confluent C33A cells were starved for 24 hours and then treated with human IL-6 protein (50 ng/mL) in the presence or absence of S1 peptide (50 μmol/L) or S7 peptide (50 μmol/L). Cell lysates were obtained and subjected to SDS-PAGE separation and Western blot analysis using various antibodies for immunoblotting, such as anti-phospho-ERK1/2, anti-phospho-Akt, anti-ERK1/2, and anti-Akt.
Equal amounts of cell lysates (75 μg) were resolved by SDS-PAGE, transferred to polyvinylidene difluoride membranes, and probed with specific anti-Mcl-1 antibodies as described above. β-actin served as the internal loading control to get the result shown in FIG. 4A.

HUVECs [3] = experiment: HUVEC proliferation induced by IL-6-CM, trypan blue exclusion; format: cell-based, human; conditions: CM from IL-6-overexpressed cells; 24 hours; FIG. 6
Method: (§2) C33A cervical cancer cells, RPMI 8226 multiple myeloma cells and basal cell carcinoma (BCC) cells, vectors (negative control) were cultivated respectively in DMEM containing 10% FBS, penicillin (100 units/ml), and streptomycin (100 μg/mL) as well as IL-6 protein. At 90% confluence, culture medium was replaced with serum-free medium. IL-6 containing C33A cells were incubated with S1 or S7 peptide for another 24 hours. Conditioned medium (CM) was collected after centrifugation of cellular debris.
HUVECs were plated onto six-well dishes (Falcon, Becton Dickinson) at a concentration of 2.5×10^5 cells per well in M199 medium supplemented with 10% FBS. One day after seeding, HUVECs were stimulated with CM from cells treated in various ways respectively, where the CM was mixed with M199 medium. Twenty-four hours later, the viable cells were counted using a trypan blue exclusion method.
For the trypan blue exclusion assay, cells were washed with PBS, trypsinized, and then resuspended in 1 ml PBS. Trypan blue-stained cells were then counted using a modified Neubauer hemocytometer under a phase-contrast light microscope.

HUVECs [4] = experiment: Capillary tube-like formation by HUVECs on Matrigel; format: cell-based, human; conditions: 6 hours, FIG. 7
Method: In vitro Assessment using a growth factor-reduced basement membrane Matrigel matrix was carried out to evaluate capillary tube-like formation. The Matrigel was thawed at 4° C. and mixed to homogeneity. The bottom of 96-well cell culture plates were coated with a thin layer of Matrigel (40 μl) and allow the Matrigel to polymerize at 37° C. for 30 minutes. HUVECs were resuspended in M199 medium containing 1% serum to a density of 2.5×10^4 cells/100 μl, mixed with 100 μl of M199 medium containing 1% serum and 100 μl CM from either C33A/neo or C33A/IL-6 cells treated in various ways, and finally plated onto the Matrigel-coated surface. Six hours later, cells were fixed in 4% paraformaldehyde and stained with 0.1% crystal violet. Three microscopic fields were selected at random and photographed, and the number of tube-like structures per field was determined to get the result shown in FIG. 7.

VEGF-A = VEGF-A secretion, quantitative sandwich ELISA of conditioned medium; format: cell-based; conditions: C33A, RPMI 8226 and BCC cells (all three cell lines); 24 hours; FIG. 5
Method: as §2
The conditioned medium (CM) was concentrated using an Amicon ultracentrifugation device (Millipore). The concentrations of VEGF-A in culture supernatants were determined with quantitative sandwich ELISA assay according to the manufacturer's instruction. Briefly, cell supernatant (50 μl) was incubated with 50 μl of assay diluents for 2 hours at room temperature in a 96-well tissue culture plate coated with monoclonal antibodies against VEGF-A. After five consecutive washes, a conjugate consisting of polyclonal VEGF-A antibodies and HRP was added. The mixture was incubated for 2 hours at room temperature. Following the subsequent addition of a color reagent, absorbance was read at 450 nm using a Thermo-Max microplate reader (Molecular Devices Co., Menlo Park, Calif.).

C33A/IL-6 cells = experiment: Tumor growth inhibition in SCID mice injected with C33A/IL-6 cells; format: in vivo; conditions: 50 mg/kg i.p. every 2 days, FIG. 9
Method: Six- to 8-week-old female severe combined immunodeficient (SCID) mice were […] with 1×10^6 C33A/neo or C33A/IL-6 cells. Beginning 3 days later, S1 or S7 peptide (50 mg/kg, dissolved in PBS) was injected i.p. every 2 days. Tumor development was followed in measurements of length (L) and width (W).

[5] = system: Ras/MAPK and PI3-K/Akt signaling pathways; experiment: Western blot of IL-6-induced Akt and ERK1/2 phosphorylation in C33A cells; format: cell-based, human; conditions: IL-6 50 ng/mL, peptide 50 μmol/L, FIG. 4A
Method: as §1

Substance | hemoglobin induction in Matrigel plugs containing C33A/IL-6-CM [1] | antagonism of the binding of IL-6 to IL-6Rα in different cell lines [2] | IL-6-induced up-regulation of Mcl-1 protein (Mcl-1 protein) | IL-6-CM induced HUVECs proliferation (HUVECs [3]) | C33A/IL-6-CM induced tube-like cell cord formation (HUVECs [4]) | IL-6-mediated VEGF-A secretion (VEGF-A) | IL-6-induced tumor growth (C33A/IL-6 cells) | tumor growth inhibition at the end of the experiment (C33A/IL-6 cells; tumor volume) [%] | inhibition of IL-6-induced phosphorylated Akt level [5] | inhibition of IL-6-induced phosphorylated ERK1/2 MAPK level [5]
LSLITRL [peptide S7] | almost completely inhibited | antagonize the binding | antagonized | greatly attenuated | almost completely inhibited | significantly decreased | significantly reduced | 76 | significantly inhibited | significantly inhibited
LSLMPRL [peptide S1, negative control peptide, reference compound] |  |  |  | not |  |  |  |  | not | not
